Laboratory results reported in patent US20190345150A1, “MICROBIOCIDAL OXADIAZOLE DERIVATIVES” (SYNGENTA PARTICIPATIONS AG, priority 2016, published 2019).

How the values were obtained:
[1] = test system: Puccinia recondita f. Sp. Tritici; experiment: Puccinia recondita f. sp. tritici / wheat / leaf disc curative (brown rust); assay type: in vivo; conditions: foliar, 24 h, 200 ppm in the applied formulation, wheat leaf segments cv. Kanzler, curative (applied 1 day after inoculation), compared to untreated control, read-out: disease control
Protocol: Leaf disks or leaf segments of various plant species are cut from plants grown in a greenhouse. The cut leaf disks or segments are placed in multiwell plates (24-well format) onto water agar. The leaf disks are sprayed with a test solution before (preventative) or after (curative) inoculation. Compounds to be tested are prepared as DMSO solutions (max. 10 mg/ml) which are diluted to the appropriate concentration with 0.025% Tween20 just before spraying. The inoculated leaf disks or segments are incubated under defined conditions (temperature, relative humidity, light, etc.) according to the respective test system. A single evaluation of disease level is carried out 3 to 14 days after inoculation, depending on the pathosystem. Percent disease control relative to the untreated check leaf disks or segments is then calculated. Wheat leaf segments cv. Kanzler are placed on agar in multiwell plates (24-well format). The leaf segments are then inoculated with a spore suspension of the fungus. Plates were stored in darkness at 19° C. and 75% relative humidity. The formulated test compound diluted in water was applied 1 day after inoculation. The leaf segments were incubated at 19° C. and 75% relative humidity under a light regime of 12 hours light/12 hours darkness in a climate cabinet and the activity of a compound was assessed as percent disease control compared to untreated when an appropriate level of disease damage appears in untreated check leaf segments (6 to 8 days after application).

[2] = test system: Puccinia recondita f. Sp. Tritici; experiment: Puccinia recondita f. sp. tritici / wheat / leaf disc preventative (brown rust); assay type: in vivo; conditions: foliar, 200 ppm in the applied formulation, wheat leaf segments cv. Kanzler, preventative (inoculated 1 day after application), compared to untreated control, read-out: disease control
Protocol: Leaf disks or leaf segments of various plant species are cut from plants grown in a greenhouse. The cut leaf disks or segments are placed in multiwell plates (24-well format) onto water agar. The leaf disks are sprayed with a test solution before (preventative) or after (curative) inoculation. Compounds to be tested are prepared as DMSO solutions (max. 10 mg/ml) which are diluted to the appropriate concentration with 0.025% Tween20 just before spraying. The inoculated leaf disks or segments are incubated under defined conditions (temperature, relative humidity, light, etc.) according to the respective test system. A single evaluation of disease level is carried out 3 to 14 days after inoculation, depending on the pathosystem. Percent disease control relative to the untreated check leaf disks or segments is then calculated. Wheat leaf segments cv. Kanzler were placed on agar in multiwell plates (24-well format) and sprayed with the formulated test compound diluted in water. The leaf disks were inoculated with a spore suspension of the fungus 1 day after application. The inoculated leaf segments were incubated at 19° C. and 75% relative humidity (rh) under a light regime of 12 hours light/12 hours darkness in a climate cabinet and the activity of a compound was assessed as percent disease control compared to untreated when an appropriate level of disease damage appears in untreated check leaf segments (7 to 9 days after application).

[3] = test system: Glomerella laqenarium (Colletotrichum laqenarium); experiment: Glomerella lagenarium liquid culture / cucumber / preventative (anthracnose); assay type: cell-based; conditions: 20 ppm in the applied formulation, liquid culture in PDB, growth inhibition measured photometrically 3 to 4 days after application, compared to untreated control, read-out: disease control
Protocol: Mycelia fragments or conidia suspensions of a fungus prepared either freshly from liquid cultures of the fungus or from cryogenic storage, are directly mixed into nutrient broth. DMSO solutions of the test compound (max. 10 mg/ml) are diluted with 0.025% Tween20 by a factor of 50 and 10 μl of this solution is pipetted into a microtiter plate (96-well format). The nutrient broth containing the fungal spores/mycelia fragments is then added to give an end concentration of the tested compound. The test plates are incubated in the dark at 24° C. and 96% relative humidity. The inhibition of fungal growth is determined photometrically after 2 to 7 days, depending on the pathosystem, and percent antifungal activity relative to the untreated check is calculated. Conidia of the fungus from cryogenic storage are directly mixed into nutrient broth (PDB—potato dextrose broth). After placing a (DMSO) solution of test compound into a microtiter plate (96-well format), the nutrient broth containing the fungal spores is added. The test plates are incubated at 24° C. and the inhibition of growth is measured photometrically 3 to 4 days after application.

Compound	pest or weed control at 200 ppm [1] [%]	melting point [°C]	pest or weed control at 200 ppm [2] [%]	inhibition of growth at 20 ppm [3] [%]
Fc1ccc(OCc2ccc(-c3noc(C(F)(F)F)n3)cc2)cc1 [Compound 1.6, 3-[4-[(4-fluorophenoxy)methyl]phenyl]-5-(trifluoromethyl)-1,2,4-oxadiazole]	≥ 80	174 to 176	–	–
FC(F)(F)c1nc(-c2ccc(COc3ccccc3)cc2)no1 [Compound 1.7, 3-[4-(phenoxymethyl)phenyl]-5-(trifluoromethyl)-1,2,4-oxadiazole]	≥ 80	105 to 107	–	–
FC(F)(F)c1nc(-c2ccc(COc3ccccn3)cc2)no1 [Compound 1.9, 3-[4-(2-pyridyloxymethyl)phenyl]-5-(trifluoromethyl)-1,2,4-oxadiazole]	≥ 80	86 to 88	≥ 80	≥ 80
Fc1cccc(F)c1OCc1ccc(-c2noc(C(F)(F)F)n2)cc1 [Compound 1.10, 3-[4-[(2,6-difluorophenoxy)methyl]phenyl]-5-(trifluoromethyl)-1,2,4-oxadiazole]	≥ 80	66 to 68	–	–
Fc1c(COc2ccccc2)ccc(-c2noc(C(F)(F)F)n2)c1F [Compound 1.12, 3-[2,3-difluoro-4-(phenoxymethyl)phenyl]-5-(trifluoromethyl)-1,2,4-oxadiazole]	–	113 to 115	–	–
N#Cc1ccc(OCc2ccc(-c3noc(C(F)(F)F)n3)cc2)nc1 [Compound 1.14, 6-[[4-[5-(trifluoromethyl)-1,2,4-oxadiazol-3-yl]phenyl]methoxy]pyridine-3-carbonitrile]	–	156 to 158	≥ 80	≥ 80
Cc1ccc(OCc2ccc(-c3noc(C(F)(F)F)n3)cc2)nc1 [Compound 1.15, 3-[4-[(5-methyl-2-pyridyl)oxymethyl]phenyl]-5-(trifluoromethyl)-1,2,4-ioxadiazole]	≥ 80	141 to 143	–	–
Cc1nnc(OCc2ccc(-c3noc(C(F)(F)F)n3)cc2)o1 [Compound 1.20, 2-methyl-5-[[4-[5-(trifluoromethyl)-1,2,4-oxadiazol-3-yl]phenyl]methoxy]-1,3,4-oxadiazole]	–	–	–	≥ 80
FC(F)(F)c1nc(-c2ccc(COc3ccc(Br)nn3)cc2)no1 [Compound 1.21, 3-[4-[(6-bromopyridazin-3-yl)oxymethyl]phenyl]-5-(trifluoromethyl)-1,2,4-oxadiazole]	–	–	–	≥ 80
Cc1cccc(OC(C)c2ccc(-c3noc(C(F)(F)F)n3)cc2)n1 (stereo not shown) [Compound 1.24, 3-[4-[1-[(6-methyl-2-pyridyl)oxy]ethyl]phenyl]-5-(trifluoromethyl)-1,2,4-oxadiazole]	–	–	–	≥ 80
Cc1cccc(OCc2cc(F)c(-c3noc(C(F)(F)F)n3)c(F)c2)n1 [Compound 1.25, 3-[2,6-difluoro-4-[(6-methyl-2-pyridyl)oxymethyl]phenyl]-5-(trifluoromethyl)-1,2,4-oxadiazole]	–	65 to 66	–	≥ 80
CC1(C)CC(OCc2cc(F)c(-c3noc(C(F)(F)F)n3)c(F)c2)=NO1 [Compound 1.26, 3-[4-[(5,5-dimethyl-4H-isoxazol-3-yl)oxymethyl]-2,6-difluoro-phenyl]-5-(trifluoromethyl)-1,2,4-oxadiazole]	≥ 80	–	≥ 80	≥ 80
Cc1cccc(OCc2cc(F)c(-c3noc(C(F)(F)F)n3)cc2F)n1 [Compound 1.27, 3-[2,5-difluoro-4-[(6-methyl-2-pyridyl)oxymethyl]phenyl]-5-(trifluoromethyl)-1,2,4-oxadiazole]	–	91 to 94	–	–
CC(=O)OCc1ccc(-c2noc(C(F)(F)F)n2)cc1 [Compound 2.1, [4-[5-(trifluoromethyl)-1,2,4-oxadiazol-3-yl]phenyl]methyl acetate]	–	–	≥ 80	≥ 80
CC(C)C(=O)OCc1ccc(-c2noc(C(F)(F)F)n2)cc1 [Compound 2.2, [4-[5-(trifluoromethyl)-1,2,4-oxadiazol-3-yl]phenyl]methyl 2-methylpropanoate]	–	48 to 50	–	≥ 80
CC(C)(C)C(=O)OCc1ccc(-c2noc(C(F)(F)F)n2)cc1 [Compound 2.3, [4-[5-(trifluoromethyl)-1,2,4-oxadiazol-3-yl]phenyl]methyl 2,2-dimethylpropanoate]	–	–	–	≥ 80
O=C(NCC(F)(F)F)OCc1ccc(-c2noc(C(F)(F)F)n2)cc1 [Compound 3.3, [4-[5-(trifluoromethyl)-1,2,4-oxadiazol-3-yl]phenyl]methyl N-(2,2,2-trifluoroethyl)carbamate]	≥ 80	–	≥ 80	≥ 80
CON(C)C(=O)OCc1ccc(-c2noc(C(F)(F)F)n2)cc1 [Compound 3.4, [4-[5-(trifluoromethyl)-1,2,4-oxadiazol-3-yl]phenyl]methyl N-methoxy-N-methyl-carbamate]	–	–	–	≥ 80
CC(OC(=O)N(C)C)c1ccc(-c2noc(C(F)(F)F)n2)cc1 (stereo not shown) [Compound 3.5, 1-[4-[5-(trifluoromethyl)-1,2,4-oxadiazol-3-yl]phenyl]ethyl N,N-dimethylcarbamate]	≥ 80	–	≥ 80	≥ 80
CN(C(=O)OCc1ccc(-c2noc(C(F)(F)F)n2)cc1)c1ccccn1 [Compound 3.6, [4-[5-(trifluoromethyl)-1,2,4-oxadiazol-3-yl]phenyl]methyl N-methyl-N-(2-pyridyl)carbamate]	–	110 to 112	–	–
CNC(=O)OCc1ccc(-c2noc(C(F)(F)F)n2)cc1 [Compound 3.7, [4-[5-(trifluoromethyl)-1,2,4-oxadiazol-3-yl]phenyl]methyl N-methylcarbamate]	–	100 to 102	–	–
CC(C)=NOCc1ccc(-c2noc(C(F)(F)F)n2)cc1 [Compound 4.1, N-[[4-[5-(trifluoromethyl)-1,2,4-oxadiazol-3-yl]phenyl]methoxy]propan-2-imine]	≥ 80	48 to 52	–	–
CC1=NN(C)C(=O)C1=NOCc1ccc(-c2noc(C(F)(F)F)n2)cc1 [Compound 4.4, 2,5-dimethyl-4-[[4-[5-(trifluoromethyl)-1,2,4-oxadiazol-3-yl]phenyl]methoxyimino]pyrazol-3-one]	–	110 to 111	–	≥ 80
